According to patent US20250041293A1, “AN IGF1R INHIBITOR AND AN AKT INHIBITOR FOR USE IN THE TREATMENT OF CANCER” (Genome Research Limited, priority 2022, published 2025):
Where two headings read alike, the source gives them in different places.

Experiments:
[1] = phase I, patients with multiple myeloma; cited from earlier work
Akt1 = Akt1 (Homo sapiens, UniProt P31749); conditions: cited from earlier work
Mek = conditions: cited from earlier work
MAPK1/2 = conditions: cited from earlier work
IR = IR (Homo sapiens, UniProt P06213); conditions: cited from earlier work
IR, sequence (P06213 28-1382): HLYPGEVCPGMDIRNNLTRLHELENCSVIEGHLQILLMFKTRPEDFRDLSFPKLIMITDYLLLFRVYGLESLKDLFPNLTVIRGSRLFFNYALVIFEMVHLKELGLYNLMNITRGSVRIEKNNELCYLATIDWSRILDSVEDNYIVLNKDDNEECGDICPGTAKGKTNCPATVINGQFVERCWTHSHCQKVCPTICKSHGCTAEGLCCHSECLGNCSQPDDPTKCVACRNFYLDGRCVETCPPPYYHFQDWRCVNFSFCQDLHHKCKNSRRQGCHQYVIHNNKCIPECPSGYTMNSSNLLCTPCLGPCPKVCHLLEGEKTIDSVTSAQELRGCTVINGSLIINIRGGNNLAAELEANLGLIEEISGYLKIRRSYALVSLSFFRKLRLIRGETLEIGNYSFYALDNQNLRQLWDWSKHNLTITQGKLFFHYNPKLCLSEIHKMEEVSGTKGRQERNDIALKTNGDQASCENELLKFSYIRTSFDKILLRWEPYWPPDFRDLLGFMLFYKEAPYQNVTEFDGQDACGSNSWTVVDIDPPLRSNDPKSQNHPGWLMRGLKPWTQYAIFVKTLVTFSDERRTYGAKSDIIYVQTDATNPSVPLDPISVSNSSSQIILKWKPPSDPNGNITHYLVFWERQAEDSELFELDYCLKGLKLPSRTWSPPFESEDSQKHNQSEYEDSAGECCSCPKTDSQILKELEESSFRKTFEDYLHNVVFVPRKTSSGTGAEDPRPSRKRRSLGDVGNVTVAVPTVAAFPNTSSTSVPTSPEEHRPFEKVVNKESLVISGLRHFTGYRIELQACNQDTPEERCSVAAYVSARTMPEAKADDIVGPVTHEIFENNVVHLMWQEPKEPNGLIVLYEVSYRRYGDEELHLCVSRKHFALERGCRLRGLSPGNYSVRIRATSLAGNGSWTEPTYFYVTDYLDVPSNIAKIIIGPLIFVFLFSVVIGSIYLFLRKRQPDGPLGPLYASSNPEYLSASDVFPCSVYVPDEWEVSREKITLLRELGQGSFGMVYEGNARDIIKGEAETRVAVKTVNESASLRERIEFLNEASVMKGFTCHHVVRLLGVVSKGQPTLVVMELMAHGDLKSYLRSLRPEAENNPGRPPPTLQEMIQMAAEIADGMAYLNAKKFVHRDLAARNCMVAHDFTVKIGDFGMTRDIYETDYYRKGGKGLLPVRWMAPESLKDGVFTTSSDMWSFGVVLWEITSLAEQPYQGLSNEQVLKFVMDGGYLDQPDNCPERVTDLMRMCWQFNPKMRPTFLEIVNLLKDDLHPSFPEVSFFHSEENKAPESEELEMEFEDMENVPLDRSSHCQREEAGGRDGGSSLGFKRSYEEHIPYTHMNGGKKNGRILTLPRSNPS

FGF-R, PDGF-R, or EGF-R = conditions: for example FGF-R; cited from earlier work
[2] = tested on: Akt1/2, Aurora A/B,B-Raf, CDK2, and EGFR; conditions: cited from earlier work
Akt2 = Akt2 (Homo sapiens, UniProt P31751); conditions: assay format not stated; cited from earlier work
Akt3 = Akt3 (Homo sapiens, UniProt Q9Y243); conditions: assay format not stated; cited from earlier work
Akt3, sequence (Q9Y243 whole entry): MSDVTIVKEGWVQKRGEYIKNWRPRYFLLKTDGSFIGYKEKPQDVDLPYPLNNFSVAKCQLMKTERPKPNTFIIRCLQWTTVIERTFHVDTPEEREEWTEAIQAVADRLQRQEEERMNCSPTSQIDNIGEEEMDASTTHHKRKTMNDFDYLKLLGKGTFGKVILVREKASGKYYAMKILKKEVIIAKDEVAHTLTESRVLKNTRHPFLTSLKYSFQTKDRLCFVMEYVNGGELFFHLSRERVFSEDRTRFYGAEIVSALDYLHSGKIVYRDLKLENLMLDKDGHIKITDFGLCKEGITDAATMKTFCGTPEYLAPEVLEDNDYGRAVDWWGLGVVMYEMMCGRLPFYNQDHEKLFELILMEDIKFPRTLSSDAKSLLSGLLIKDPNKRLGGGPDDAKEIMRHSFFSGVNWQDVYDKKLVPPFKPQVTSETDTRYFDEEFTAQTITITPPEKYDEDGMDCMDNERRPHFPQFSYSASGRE

colon cancer cell lines = test: Anchored 2x7 combination viability screen (CellTiter-Glo, 72 h), colon cancer cell lines; type: cell-based; conditions: in combination with MK-2206, colon; compared with Linsitinib+MK-2206
Description: To screen efficiently we used a 2×7 concentration matrix, or “anchored” approach. We screened each anchor compound at two optimised concentrations and a discontinuous 1,000-fold (7-point) dose-response curve of the library compound. Viability was read out after 72 h of drug treatment using CellTiter-Glo and drug responses for single agent and combination responses were fitted. […] The combination was screened in both anchor and library orientations, the first named compound being the anchor compound.

PKA = conditions: cited from earlier work
PKC = conditions: cited from earlier work
ABL T3151 = ABL T3151 (Homo sapiens, UniProt P00519, T315I); conditions: cell-free assays; cited from earlier work
SRC = SRC (Homo sapiens, UniProt P12931); conditions: cell-free assays; cited from earlier work
SRC, sequence (P12931 whole entry): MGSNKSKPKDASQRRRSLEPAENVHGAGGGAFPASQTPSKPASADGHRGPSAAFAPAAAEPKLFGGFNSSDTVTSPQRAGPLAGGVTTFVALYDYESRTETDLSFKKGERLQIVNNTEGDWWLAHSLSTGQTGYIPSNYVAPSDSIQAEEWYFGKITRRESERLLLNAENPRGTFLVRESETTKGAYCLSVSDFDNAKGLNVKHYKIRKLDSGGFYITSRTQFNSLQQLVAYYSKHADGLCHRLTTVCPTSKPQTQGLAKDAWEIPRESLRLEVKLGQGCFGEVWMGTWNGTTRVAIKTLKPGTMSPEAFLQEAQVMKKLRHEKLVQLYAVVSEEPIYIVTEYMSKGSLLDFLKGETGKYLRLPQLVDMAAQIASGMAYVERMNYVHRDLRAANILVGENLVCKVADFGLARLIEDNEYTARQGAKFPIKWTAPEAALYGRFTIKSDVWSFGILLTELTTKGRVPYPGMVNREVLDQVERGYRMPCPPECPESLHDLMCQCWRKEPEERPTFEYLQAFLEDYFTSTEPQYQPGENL

LYN = LYN (Homo sapiens, UniProt P07948); conditions: cell-free assays; cited from earlier work
LYN, sequence (P07948 whole entry, the tested form may be a part): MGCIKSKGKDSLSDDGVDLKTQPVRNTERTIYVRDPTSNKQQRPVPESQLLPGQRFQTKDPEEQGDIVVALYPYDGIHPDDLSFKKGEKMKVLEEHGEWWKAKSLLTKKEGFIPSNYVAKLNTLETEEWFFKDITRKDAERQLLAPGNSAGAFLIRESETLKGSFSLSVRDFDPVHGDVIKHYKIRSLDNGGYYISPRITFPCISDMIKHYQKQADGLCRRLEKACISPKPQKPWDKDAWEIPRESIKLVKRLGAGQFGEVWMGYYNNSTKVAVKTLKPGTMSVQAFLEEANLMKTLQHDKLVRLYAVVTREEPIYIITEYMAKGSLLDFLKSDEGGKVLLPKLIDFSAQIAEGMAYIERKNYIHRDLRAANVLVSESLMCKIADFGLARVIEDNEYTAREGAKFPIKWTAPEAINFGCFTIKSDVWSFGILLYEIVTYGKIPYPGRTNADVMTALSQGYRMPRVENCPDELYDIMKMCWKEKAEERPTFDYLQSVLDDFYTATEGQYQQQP

[3] = weekly 1-hr IV infusions; patients with solid tumours or multiple myeloma; cited from earlier work
IGF1R = IGF1R (Homo sapiens, UniProt P08069); conditions: assay format not stated; cited from earlier work
IGF1R, sequence (P08069 31-1367): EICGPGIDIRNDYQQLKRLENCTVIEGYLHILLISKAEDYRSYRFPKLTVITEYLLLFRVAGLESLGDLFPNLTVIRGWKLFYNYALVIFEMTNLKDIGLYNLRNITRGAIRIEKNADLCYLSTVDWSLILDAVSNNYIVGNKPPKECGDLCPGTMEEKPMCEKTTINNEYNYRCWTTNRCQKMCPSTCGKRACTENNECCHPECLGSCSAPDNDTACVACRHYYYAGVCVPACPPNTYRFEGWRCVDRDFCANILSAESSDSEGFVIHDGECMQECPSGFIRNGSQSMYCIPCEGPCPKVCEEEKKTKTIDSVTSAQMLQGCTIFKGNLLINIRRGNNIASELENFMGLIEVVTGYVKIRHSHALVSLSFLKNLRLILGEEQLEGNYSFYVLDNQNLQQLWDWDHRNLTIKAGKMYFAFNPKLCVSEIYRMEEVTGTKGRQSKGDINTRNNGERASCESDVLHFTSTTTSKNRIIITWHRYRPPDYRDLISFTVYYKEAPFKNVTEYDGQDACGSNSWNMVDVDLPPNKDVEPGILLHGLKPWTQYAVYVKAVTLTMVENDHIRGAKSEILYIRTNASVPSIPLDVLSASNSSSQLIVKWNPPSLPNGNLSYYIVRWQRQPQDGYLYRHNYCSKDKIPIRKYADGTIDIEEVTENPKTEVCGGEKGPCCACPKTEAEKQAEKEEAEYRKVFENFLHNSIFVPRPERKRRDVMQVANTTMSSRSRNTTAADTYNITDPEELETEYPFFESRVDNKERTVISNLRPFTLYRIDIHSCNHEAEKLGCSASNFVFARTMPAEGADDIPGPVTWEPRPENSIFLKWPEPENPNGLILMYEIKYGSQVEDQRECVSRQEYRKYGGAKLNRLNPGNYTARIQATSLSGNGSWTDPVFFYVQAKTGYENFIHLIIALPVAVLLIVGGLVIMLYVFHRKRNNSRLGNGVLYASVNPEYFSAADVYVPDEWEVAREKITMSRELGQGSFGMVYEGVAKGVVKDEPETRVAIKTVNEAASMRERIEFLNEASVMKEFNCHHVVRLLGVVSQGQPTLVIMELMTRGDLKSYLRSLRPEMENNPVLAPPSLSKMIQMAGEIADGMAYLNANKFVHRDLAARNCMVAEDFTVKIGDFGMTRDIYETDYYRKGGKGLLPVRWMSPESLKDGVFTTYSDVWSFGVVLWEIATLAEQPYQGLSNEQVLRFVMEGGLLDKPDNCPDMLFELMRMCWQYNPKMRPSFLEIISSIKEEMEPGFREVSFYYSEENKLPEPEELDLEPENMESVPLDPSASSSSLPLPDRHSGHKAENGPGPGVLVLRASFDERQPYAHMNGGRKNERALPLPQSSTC

insulin receptor (IR) = insulin receptor (IR) (Homo sapiens, UniProt P06213); conditions: assay format not stated; cited from earlier work
insulin receptor (IR), sequence (P06213 28-1382): as the sequence (P06213 28-1382) above

Akt1, sequence (P31749 whole entry): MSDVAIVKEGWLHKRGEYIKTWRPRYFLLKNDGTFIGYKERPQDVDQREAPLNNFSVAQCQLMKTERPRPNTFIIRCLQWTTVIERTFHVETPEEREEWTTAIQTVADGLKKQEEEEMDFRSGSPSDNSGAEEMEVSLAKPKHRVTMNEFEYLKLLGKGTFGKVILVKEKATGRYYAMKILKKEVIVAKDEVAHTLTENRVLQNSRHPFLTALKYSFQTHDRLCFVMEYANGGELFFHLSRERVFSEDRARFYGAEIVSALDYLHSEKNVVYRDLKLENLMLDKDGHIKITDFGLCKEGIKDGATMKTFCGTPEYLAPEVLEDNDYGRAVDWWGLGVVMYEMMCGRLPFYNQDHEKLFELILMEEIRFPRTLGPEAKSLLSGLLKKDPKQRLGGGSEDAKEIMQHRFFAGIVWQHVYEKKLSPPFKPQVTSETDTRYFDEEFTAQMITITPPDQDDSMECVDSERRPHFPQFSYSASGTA

## Cn1ncc(Cl)c1-c1cc(C(=O)N[C@H](CN)Cc2cccc(F)c2)sc1Cl [Afuresertib, N-[(1S)-1-(aminomethyl)-2-(3-fluorophenyl)ethyl]-5-chloro-4-(4-chloro-2-methyl-pyrazol-3-yl)thiophene-2-carboxamide]
[1]
  maximum tolerated dose (MTD): 125 mg per day

## Cc1cc(N2CCOCC2)cc2[nH]c(-c3c(NC[C@@H](O)c4cccc(Cl)c4)cc[nH]c3=O)nc12 [BMS-536924]
Akt1
  activity for Akt1 (in words): very little activity
Mek
  IC50: 182 nM
MAPK1/2
  activity for MAPK1/2 (in words): very little activity

## COc1cc([C@@H]2c3cc4c(cc3[C@H](O)[C@H]3COC(=O)[C@@H]23)OCO4)cc(OC)c1OC [AXL-1717, (5R,5aR,8aS,9R)-5-hydroxy-9-(3,4,5-trimethoxyphenyl)-5a,6,8a,9-tetrahydro-5H-[2]benzofuro[5,6-f][1,3]benzodioxol-8-one]
IR
  inhibition of tyrosine phosphorylation of the IR (in words): does not co-inhibit
FGF-R, PDGF-R, or EGF-R
  inhibition of tyrosine phosphorylation of a selected panel of receptors less related to IGF-IR (in words): does not co-inhibit

## CCc1cc(Nc2nccc(-c3c(-c4ccc(OC)c(C(=O)Nc5c(F)cccc5F)c4)nc4ccccn34)n2)c(OC)cc1N1CCC(N2CCN(S(C)(=O)=O)CC2)CC1 [GSK1904529A, N-(2,6-difluorophenyl)-5-[3-[2-[5-ethyl-2-methoxy-4-[4-(4-methylsulfonylpiperazin-1-yl)-1-piperidyl]anilino]pyrimidin-4-yl]imidazo[1,2-a]pyridine-2-yl]-2-methoxy-benzamide]
[2]
  selectivity for IGF1R/IR than Akt1/2, Aurora A/B, B-Raf, CDK2, and EGFR: > 100 fold

## C[C@]1(O)C[C@@](N)(c2ccc(-c3nc4n(c3-c3ccccc3)COc3ccncc3-4)cc2)C1 [TAS-117, 3-amino-1-methyl-3-[4-(5-phenyl-8-oxa-3,6,12-triazatricyclo[7.4.0.0^2,6]trideca-1(9),2,4,10,12-pentaen-4-yl)phenyl]cyclobutan-1-ol]
Akt1; assay format not stated
  IC50: 4.8 nM
Akt2
  IC50: 1.6 nM
Akt3
  IC50: 44 nM

## C[C@@]1(C(=O)Nc2ccc(F)nc2)CCCN1c1nc(Nc2cc(C3CC3)[nH]n2)c2cccn2n1 [BMS-754807, 1-[4-[(5-cyclopropyl-1H-pyrazol-3-yl)amino]pyrrolo[2,1-f][1,2,4]triazin-2-yl]-N-(6-fluoro-3-pyridyl)-2-methyl-pyrrolidine-2-carboxamide]
Colon cancer cell lines
  synergy and activity of the IGF1Ri combined with MK-2206 (in words): much lower
PKA
  activity to PKA (in words): little activity
PKC
  activity to PKC (in words): little activity

## CC(C)c1cc(CNc2nc(Nc3cc(C4CC4)[nH]n3)cc(N3CCN(C)CC3)n2)on1 [XL228, N4-(5-cyclopropyl-1H-pyrazol-3-yl)-N2-[(3-isopropylisoxazol-5-yl)methyl]-6-(4-methylpiperazin-1-yl)pyrimidine-2,4-diamine]
ABL T3151
  IC50: 1.4 nM
SRC
  IC50: 6.1 nM
LYN
  IC50: 2 nM
[3]
  maximum tolerated dose (MTD): 6.5 mg/kg

## Cc1ccsc1C(=O)Nc1cc(CN2CCN(C(=O)CO)CC2)ccc1/C=C/c1n[nH]c2ccccc12 [KW-2450]
IGF1R
  IC50: 7.39 nM
Insulin receptor (IR)
  IC50: 5.64 nM
